Where “and” joins values, the source holds several entries; their conditions need not be identical. Equal entries are not always repeated.
System: A498 complex spheroid viability
Assay: Anticancer human tumor A498 cell line growth inhibition;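 also: spheroids exposed to agents for seven days before readout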;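 as to viability, T/C: 100% = DMSO vehicle-treated spheroids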
Details: for viability, T/C: stronger effect = lower value
Summary of the method: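 Multicellular complex spheroids of tumor cells with human endothelial cells (HUVEC) and mesenchymal stem cells; the LSD1 inhibitor iadademstat was combined with standard-of-care or investigational agents. Top concentration at or near clinical Cmax, half-log dilutions; final DMSO ≤0.25%.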

[1] = curve of first compound, second compound 0.1 µM
[2] = curve of first compound, second compound 0.316 µM
[3] = curve of first compound, second compound 1 µM
[4] = curve of first compound, second compound 3.16 µM
[5] = curve of first compound, second compound 10 µM
[6] = second compound 0.1 µM, first compound 0.00316 µM
[7] = second compound 0.1 µM, first compound 0.01 µM
[8] = second compound 0.1 µM, first compound 0.0316 µM
[9] = second compound 0.1 µM, first compound 0.1 µM
[10] = second compound 0.1 µM, first compound 0.316 µM
[11] = second compound 0.1 µM, first compound 1 µM
[12] = second compound 0.316 µM, first compound 0.00316 µM
[13] = second compound 0.316 µM, first compound 0.01 µM
[14] = second compound 0.316 µM, first compound 0.0316 µM
[15] = second compound 0.316 µM, first compound 0.1 µM
[16] = second compound 0.316 µM, first compound 0.316 µM
[17] = second compound 0.316 µM, first compound 1 µM
[18] = second compound 1 µM, first compound 0.00316 µM
[19] = second compound 1 µM, first compound 0.01 µM
[20] = second compound 1 µM, first compound 0.0316 µM
[21] = second compound 1 µM, first compound 0.1 µM
[22] = second compound 1 µM, first compound 0.316 µM
[23] = second compound 1 µM, first compound 1 µM
[24] = second compound 3.16 µM, first compound 0.00316 µM
[25] = second compound 3.16 µM, first compound 0.01 µM
[26] = second compound 3.16 µM, first compound 0.0316 µM
[27] = second compound 3.16 µM, first compound 0.1 µM
[28] = second compound 3.16 µM, first compound 0.316 µM
[29] = second compound 3.16 µM, first compound 1 µM
[30] = second compound 10 µM, first compound 0.00316 µM
[31] = second compound 10 µM, first compound 0.01 µM
[32] = second compound 10 µM, first compound 0.0316 µM
[33] = second compound 10 µM, first compound 0.1 µM
[34] = second compound 10 µM, first compound 0.316 µM
[35] = second compound 10 µM, first compound 1 µM

## O=C(C=Cn1cnc(-c2cc(C(F)(F)F)cc(C(F)(F)F)c2)n1)NNc1cnccn1 + NC1CCC(NC2CC2c2ccccc2)CC1
[1]
  IC50: 0.00521 µM
[2]
  IC50: 0.00774 µM
[3]
  IC50: 0.00626 µM
[4]
  IC50: 0.0067 µM
[5]
  IC50: 0.00409 µM
[6]
  viability, T/C: 56.5%
[7]
  viability, T/C: 40.9%
[8]
  viability, T/C: 33.6%
[9]
  viability, T/C: 26.6%
[10]
  viability, T/C: 24.9%
[11]
  viability, T/C: 20.9%
[12]
  viability, T/C: 66.7%
[13]
  viability, T/C: 44.4%
[14]
  viability, T/C: 33.5%
[15]
  viability, T/C: 31.2%
[16]
  viability, T/C: 24.1%
[17]
  viability, T/C: 23.4%
[18]
  viability, T/C: 62.4%
[19]
  viability, T/C: 39.2%
[20]
  viability, T/C: 34.1%
[21]
  viability, T/C: 27.1%
[22]
  viability, T/C: 21.9%
[23]
  viability, T/C: 21.2%
[24]
  viability, T/C: 61.5%
[25]
  viability, T/C: 42.6%
[26]
  viability, T/C: 34.1%
[27]
  viability, T/C: 26.9%
[28]
  viability, T/C: 21.5%
[29]
  viability, T/C: 20.5%
[30]
  viability, T/C: 53.4%
[31]
  viability, T/C: 39.2%
[32]
  viability, T/C: 31.1%
[33]
  viability, T/C: 26.4%
[34]
  viability, T/C: 22.9%
[35]
  viability, T/C: 16.4%

## Cn1ncnc1C1c2n[nH]c(=O)c3cc(F)cc(c23)NC1c1ccc(F)cc1 (centres undefined)
Compound 0.000316 µM
  viability, T/C: 98.4% and 110%
Compound 0.001 µM
  viability, T/C: 99.4% and 107%
Compound 0.00316 µM
  viability, T/C: 97.5% and 102%
Compound 0.01 µM
  viability, T/C: 106% and 103%
Compound 0.0316 µM
  viability, T/C: 95% and 99%
Compound 0.1 µM
  viability, T/C: 101% and 94.5%
Curve of compound
  IC50: > 0.1 µM

## CC1COCCN1c1cc(C2(S(C)(=N)=O)CC2)nc(-c2ccnc3[nH]ccc23)n1 (centres undefined) + NC1CC1c1ccc(-c2cccc(O)c2)cc1
[1]
  IC50: 0.409 µM
[2]
  IC50: 0.509 µM
[3]
  IC50: 0.552 µM
[4]
  IC50: 0.503 µM
[5]
  IC50: 0.539 µM
[8]
  viability, T/C: 92%
[9]
  viability, T/C: 85.2%
[10]
  viability, T/C: 55.2%
[11]
  viability, T/C: 28%
Second compound 0.1 µM, first compound 3.16 µM
  viability, T/C: 16.1%
Second compound 0.1 µM, first compound 10 µM
  viability, T/C: 11.5%
[14]
  viability, T/C: 97.8%
[15]
  viability, T/C: 96.8%
[16]
  viability, T/C: 68.4%
[17]
  viability, T/C: 23.9%
Second compound 0.316 µM, first compound 3.16 µM
  viability, T/C: 16.7%
Second compound 0.316 µM, first compound 10 µM
  viability, T/C: 15.6%
[20]
  viability, T/C: 86.7%
[21]
  viability, T/C: 94%
[22]
  viability, T/C: 69.9%
[23]
  viability, T/C: 28%
Second compound 1 µM, first compound 3.16 µM
  viability, T/C: 15.1%
Second compound 1 µM, first compound 10 µM
  viability, T/C: 10.6%
[26]
  viability, T/C: 85.2%
[27]
  viability, T/C: 87.9%
[28]
  viability, T/C: 63.9%
[29]
  viability, T/C: 28.1%
Second compound 3.16 µM, first compound 3.16 µM
  viability, T/C: 16.8%
Second compound 3.16 µM, first compound 10 µM
  viability, T/C: 11.2%
[32]
  viability, T/C: 89.7%
[33]
  viability, T/C: 84.8%
[34]
  viability, T/C: 63%
[35]
  viability, T/C: 34%
Second compound 10 µM, first compound 3.16 µM
  viability, T/C: 17.8%
Second compound 10 µM, first compound 10 µM
  viability, T/C: 10.1%

## CC(C)CC(NC(=O)CNC(=O)c1cc(Cl)ccc1Cl)B1OC(=O)CC(CC(=O)O)(C(=O)O)O1 (centres undefined) + NC1CC1c1ccc(-c2cccc(O)c2)cc1
[1]
  IC50: 0.00426 µM
[2]
  IC50: 0.0048 µM
[3]
  IC50: 0.00444 µM
[4]
  IC50: 0.00429 µM
[5]
  IC50: 0.00346 µM
Second compound 0.1 µM, first compound 0.000316 µM
  viability, T/C: 93.7%
Second compound 0.1 µM, first compound 0.001 µM
  viability, T/C: 96.5%
[6]
  viability, T/C: 60%
[7]
  viability, T/C: 18.1%
[8]
  viability, T/C: 5.77%
[9]
  viability, T/C: 2.14%
Second compound 0.316 µM, first compound 0.000316 µM
  viability, T/C: 106%
Second compound 0.316 µM, first compound 0.001 µM
  viability, T/C: 114%
[12]
  viability, T/C: 68.1%
[13]
  viability, T/C: 17.3%
[14]
  viability, T/C: 5.27%
[15]
  viability, T/C: 1.97%
Second compound 1 µM, first compound 0.000316 µM
  viability, T/C: 96.6%
Second compound 1 µM, first compound 0.001 µM
  viability, T/C: 102%
[18]
  viability, T/C: 62.9%
[19]
  viability, T/C: 16.8%
[20]
  viability, T/C: 3.81%
[21]
  viability, T/C: 1.83%
Second compound 3.16 µM, first compound 0.000316 µM
  viability, T/C: 91.8%
Second compound 3.16 µM, first compound 0.001 µM
  viability, T/C: 94.4%
[24]
  viability, T/C: 61%
[25]
  viability, T/C: 16.9%
[26]
  viability, T/C: 3.71%
[27]
  viability, T/C: 1.96%
Second compound 10 µM, first compound 0.000316 µM
  viability, T/C: 98.4%
Second compound 10 µM, first compound 0.001 µM
  viability, T/C: 92.1%
[30]
  viability, T/C: 51.7%
[31]
  viability, T/C: 15.6%
[32]
  viability, T/C: 2.82%
[33]
  viability, T/C: 1.07%

## CCN(c1cc(-c2ccc(CN3CCOCC3)cc2)cc(C(=O)NCc2c(C)cc(C)[nH]c2=O)c1C)C1CCOCC1
Compound 0.00949 µM
  viability, T/C: 98.7% and 101%
Compound 0.03 µM
  viability, T/C: 108% and 107%
Compound 0.0949 µM
  viability, T/C: 98.7% and 102%
Compound 0.3 µM
  viability, T/C: 103%
Compound 0.949 µM
  viability, T/C: 107% and 105%
Compound 3 µM
  viability, T/C: 112% and 113%
Curve of compound
  IC50: > 3 µM

## CC1COCCN1c1cc(-c2ccnn2C)c2ccnc(-c3ccn[nH]3)c2n1 (centres undefined) + NC1CCC(NC2CC2c2ccccc2)CC1
[1]
  IC50: 0.0219 µM
[2]
  IC50: 0.0247 µM
[3]
  IC50: 0.0245 µM
[4]
  IC50: 0.0228 µM
[5]
  IC50: 0.0141 µM
[6]
  viability, T/C: 83.9%
[7]
  viability, T/C: 76.2%
[8]
  viability, T/C: 37.5%
[9]
  viability, T/C: 16.3%
[10]
  viability, T/C: 14%
[11]
  viability, T/C: 9.97%
[12]
  viability, T/C: 89.7%
[13]
  viability, T/C: 79.6%
[14]
  viability, T/C: 41.3%
[15]
  viability, T/C: 19.1%
[16]
  viability, T/C: 14.3%
[17]
  viability, T/C: 10.5%
[18]
  viability, T/C: 84.8%
[19]
  viability, T/C: 74.4%
[20]
  viability, T/C: 42.8%
[21]
  viability, T/C: 19.3%
[22]
  viability, T/C: 15%
[23]
  viability, T/C: 9.26%
[24]
  viability, T/C: 81.5%
[25]
  viability, T/C: 71.2%
[26]
  viability, T/C: 41.4%
[27]
  viability, T/C: 19.4%
[28]
  viability, T/C: 14.8%
[29]
  viability, T/C: 9.59%
[30]
  viability, T/C: 71.5%
[31]
  viability, T/C: 58.9%
[32]
  viability, T/C: 30.7%
[33]
  viability, T/C: 22.7%
[34]
  viability, T/C: 13.9%
[35]
  viability, T/C: 9.55%

— PubChem BioAssay AID1918947 (Molecular Pharmacology Branch, DTP, NCI, 2023)
